Data set [1] can be described thus: Haemolytic activity in human RBC measured after 30 mins by spectrophotometric analysis. In kind it is toxicity, cell-based, Erythrocyte. Particulars: red blood cells (RBC), read-out: Activity.
A further data set relates to K562. The experiment in a line: Photodynamic antitumor activity against human K562 cells assessed as mortality rate preincubated for 24 hrs followed by irradiation by UV-VIS spectrophotometer. In kind it is functional.

Molecules are shown by their SMILES.

On to `O=S(=O)(O)c1cc2c(O)c(c1)Cc1cc(S(=O)(=O)O)cc(c1O)Cc1cc(S(=O)(=O)O)cc(c1O)Cc1cc(S(=O)(=O)O)cc(c1O)Cc1cc(S(=O)(=O)O)cc(c1O)Cc1cc(S(=O)(=O)O)cc(c1O)Cc1cc(S(=O)(=O)O)cc(c1O)Cc1cc(S(=O)(=O)O)cc(c1O)C2`, for which the hemolysis at 0.5 h in data set [1] came out at 29%. In addition, the Activity with K562 amounted to 30%.
As to `O=S(=O)(O)c1cc2c(O)c(c1)Cc1cc(S(=O)(=O)O)cc(c1O)Cc1cc(S(=O)(=O)O)cc(c1O)Cc1cc(S(=O)(=O)O)cc(c1O)Cc1cc(S(=O)(=O)O)cc(c1O)Cc1cc(S(=O)(=O)O)cc(c1O)C2`, the hemolysis at 0.5 h in data set [1] turned out to be 12%. In addition, in the data set with K562, the Activity was found to be 60%.

(Values after ChEMBL document CHEMBL5233225, “Para-sulfonatocalix[n]arene-based biomaterials: Recent progress in pharmaceutical and biological applications” (Eur J Med Chem, 2020).)
